Measurements: publication PMC10730852 (Communications Biology, 2023)
“And” between values parts separate entries of the source, which are not always exact repeats. Identical values can stand only once. Like-named read-outs stand apart in the source and are kept apart here. Starred links: 1 amine or outer side, 2 acyl side, 3 side chain; linkers in the order of their positions; H or OH if unused. Positions of bridges follow the written chain, without caps; N, C: chain ends. Non-standard residues stand in square brackets, D forms with d. Residues, ends and D or L forms follow the SMILES beside them. *: point of attachment. X1 = NC1=N[C@@H]([C@H](N[*:1])C(=O)[*:2])C[C@H](O)N1; ΔAla(Z-3-ureido) = NC(=O)N/C=C(\N)C(=O)O; β3hOrn = NCCC[C@H](N)CC(=O)*; Dap = NC[C@H](N)C(=O)O

Experiments:
Cph001 [1] = assay: Coupled enzyme assay and Michaelis-Menten kinetics of Cph001; type: biochemical, Streptosporangium roseum; set-up: initial velocity, Figure 3c iii, Triplicate: unit not given here; details: for initial velocity, Figure 3c iii, Triplicate / initial velocity, Figure 3c iv, Triplicate: 20 mM CMN IIA; for kcat, phosphate donor varied / Km: in the presence of saturating CMN IIA (20 mM), mean ± SEM, n = 3; for Km: read-out: apparent Km of the phosphate donor; for phosphorylation by Cph001 in couple enzyme assay: 2 mM antibiotic substrate, ATP as phosphate donor, absorbance at 340 nm; for absorbance at 340 nm, Average of triplicate: 2 mM substrate + ATP
Protocol: The phosphorylation reaction was measured by a coupled enzyme assay as following. […] The reactions were mixed well in a final volume of 200 μL in 96-well plates. The Cph001 activity was assayed by determining the oxidation of NADH at 340 nm. The reaction buffer and enzyme concentration of the Cph reaction was followed by previous study. The 340 nm absorbance changes were detected at 30 °C for every 1 min at a time in 15 min on an EPOCH Microplate Reader (BioTek). All reactions were carried out in triplicate.
The initial velocity data were plotted against substrate concentrations and fit the Michaelis-Menten equation. The Km and Vmax values were calculated based on the Michaelis-Menten equation. GraphPad Prism was used for statistical data analysis. All reactions were carried out in triplicate.

Cph001 [2] = biological target: T1, Cph001 (Streptosporangium roseum, UniProt D2B3F1); assay: Isothermal titration calorimetry (ITC) analysis of Cph001; type: binding
T1 sequence (D2B3F1 1-286): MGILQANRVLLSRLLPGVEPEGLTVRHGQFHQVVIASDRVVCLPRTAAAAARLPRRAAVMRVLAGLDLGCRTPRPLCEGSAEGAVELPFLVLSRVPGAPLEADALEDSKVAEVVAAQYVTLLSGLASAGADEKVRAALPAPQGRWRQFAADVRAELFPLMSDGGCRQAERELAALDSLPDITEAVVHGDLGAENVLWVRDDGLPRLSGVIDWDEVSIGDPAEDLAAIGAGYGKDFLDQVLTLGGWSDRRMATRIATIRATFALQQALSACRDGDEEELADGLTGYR
From the text: The integrated heat areas constitute a differential binding curve that was fitted with a standard single-site binding model by Origin 7.

Cph = biological target: Cph; set-up: method as in ACS Chem. Biol. 17, 138, 2022; details: ITC; ref ACS Chem. Biol. 17, 138, 2022; read-out: KD values for Cph interaction; cited from earlier work
[3] = tested on: E. coli/pET-22b (Control); assay: Disk diffusion assay; type: cell-based, E. coli BL21 Rosetta (DE3); details: Escherichia coli, 37 °C, 24 hr, read-out: inhibition zones; for zone of inhibition at 12.5 µg/disc: 12.5 μg on disk; for zone of inhibition at 50 µg/disc: 50 μg on disk; for zone of inhibition at 100 µg/disc: 100 μg on disk; for zone of inhibition at 200 µg/disc: 200 μg on disk
Protocol: The E. coli BL21 Rosetta (DE3) strains containing pET22b, and its carrying cph, cph001, cph002, cph003, aph(3′)-Ia, and mphB plasmids were cultured overnight. The cells, respectively, were then diluted to 0.1 OD600 in molten LB agar with 100 μg/mL ampicillin and 500 μM IPTG for the disk diffusion assay. The cells with ampicillin and IPTG were mixed well with molten LB agar and then poured into 10 cm diameter Petri dishes. […] The Petri dishes were placed in the incubator at 37 °C and the inhibition zones were observed after 24 hr.

E. coli/cph001 = assay: Disk diffusion assay; type: cell-based, E. coli BL21 Rosetta (DE3); details: for resistance in disk diffusion assay: E. coli harboring cph001; for zone of inhibition at 12.5 µg/disc / zone of inhibition at 50 µg/disc / zone of inhibition at 100 µg/disc / zone of inhibition at 200 µg/disc: Escherichia coli, 24 h, read-out: inhibition zones
Protocol: (§1) The E. coli BL21 Rosetta (DE3) strains containing pET22b, and its carrying cph, cph001, cph002, cph003, aph(3′)-Ia, and mphB plasmids were cultured overnight. The cells, respectively, were then diluted to 0.1 OD600 in molten LB agar with 100 μg/mL ampicillin and 500 μM IPTG for the disk diffusion assay. The cells with ampicillin and IPTG were mixed well with molten LB agar and then poured into 10 cm diameter Petri dishes. The 7 mm disks were placed onto the LB agar and gently loaded with varying quantities of CMN IIA, CMN IIB, VIO, Kan, and Ery, ranging from 0 to 200 μg. The Petri dishes were placed in the incubator at 37 °C and the inhibition zones were observed after 24 hr.

E. coli/cph = assay: Disk diffusion assay; type: cell-based, E. coli BL21 Rosetta (DE3); details: Escherichia coli, 24 h, read-out: inhibition zones
Protocol: as §1

E. coli/mphB = assay: Disk diffusion assay; type: cell-based, E. coli BL21 Rosetta (DE3); details: Escherichia coli, 24 h, read-out: inhibition zones
Protocol: as §1

[4] = set-up: method as in earlier work; details: ref Antimicrob. Agents Chemother. 60, 4786, 2016 and Antimicrob. Agents Chemother. 62, e01724, 2018, cited from earlier work

Nc1ncnc2c1ncn2C1OC(COP(=O)(O)OP(=O)(O)OP(=O)(O)O)C(O)C1O (centres unmarked) [ATP]
initial velocity, Figure 3c iii, Triplicate (Cph001 [1]; 0.01 mM ATP): 0.0001332 and 0.000121 and 0.0001197 | initial velocity, Figure 3c iii, Triplicate (Cph001 [1]; 0.02 mM ATP): 0.0001161 and 0.0001344 and 0.0001332 | initial velocity, Figure 3c iii, Triplicate (Cph001 [1]; 0.05 mM ATP): 0.0002407 and 0.0001564 and 0.0001833 | initial velocity, Figure 3c iii, Triplicate (Cph001 [1]; 0.1 mM ATP): 0.0002407 and 0.0002053 and 0.0001552 | initial velocity, Figure 3c iii, Triplicate (Cph001 [1]; 0.2 mM ATP): 0.0003336 and 0.0003519 and 0.0003385 | initial velocity, Figure 3c iii, Triplicate (Cph001 [1]; 0.4 mM ATP): 0.0003201 and 0.0003715 and 0.0003678 | initial velocity, Figure 3c iii, Triplicate (Cph001 [1]; 0.6 mM ATP): 0.0004387 and 0.0003983 | initial velocity, Figure 3c iii, Triplicate (Cph001 [1]; 0.8 mM ATP): 0.0003825 and 0.0004668 and 0.0004985 | kcat, phosphate donor varied (Cph001 [1]): 0.00967 ± 0.0005 s⁻¹ | Km (Cph001 [1]): 70 ± 20 µM

C[C@@H]1NC(=O)[C@@H](N)CNC(=O)[C@H](C2CCNC(=N)N2)NC(=O)/C(=C/NC(N)=O)NC(=O)[C@H](CNC(=O)C[C@@H](N)CCCN)NC1=O (some centres unmarked) [CMN IIB]
Kd (Cph001 [2]): 55.2 ± 4.4 µM | Kd (Cph): 5.48 µM | zone of inhibition at 12.5 µg/disc [3]: 17 mm | zone of inhibition at 50 µg/disc [3]: 23 mm | zone of inhibition at 100 µg/disc [3]: 25 mm | zone of inhibition at 200 µg/disc [3]: 27 mm | phosphorylation by Cph001 in couple enzyme assay (Cph001 [1]): incapable of phosphorylating | resistance in disk diffusion assay (E. coli/cph001): capable of endowing E. coli with resistance | zone of inhibition at 12.5 µg/disc (E. coli/cph001): 11 mm | zone of inhibition at 50 µg/disc (E. coli/cph001): 14 mm | zone of inhibition at 100 µg/disc (E. coli/cph001): 16 mm | zone of inhibition at 200 µg/disc (E. coli/cph001): 17.5 mm | zone of inhibition at 50 µg/disc (E. coli/cph): 12 mm | zone of inhibition at 100 µg/disc (E. coli/cph): 14 mm | zone of inhibition at 200 µg/disc (E. coli/cph): 16 mm

CC[C@H]1OC(=O)[C@H](C)[C@@H](O[C@H]2C[C@@](C)(OC)[C@@H](O)[C@H](C)O2)[C@H](C)[C@@H](O[C@@H]2O[C@H](C)C[C@H](N(C)C)[C@H]2O)[C@](C)(O)C[C@@H](C)C(=O)[C@H](C)[C@@H](O)[C@]1(C)O [Ery, erythromycin]
zone of inhibition at 12.5 µg/disc [3]: 24 mm | zone of inhibition at 50 µg/disc [3]: 27 mm | zone of inhibition at 100 µg/disc [3]: 29 mm | zone of inhibition at 200 µg/disc [3]: 31 mm | phosphorylation by Cph001 in couple enzyme assay (Cph001 [1]): only capable of phosphorylating VIO | zone of inhibition at 12.5 µg/disc (E. coli/cph001): 23 mm | zone of inhibition at 200 µg/disc (E. coli/cph001): 32 mm | zone of inhibition at 12.5 µg/disc (E. coli/mphB): 15.5 mm | zone of inhibition at 50 µg/disc (E. coli/mphB): 21.5 mm | zone of inhibition at 100 µg/disc (E. coli/mphB): 23 mm | zone of inhibition at 200 µg/disc (E. coli/mphB): 24 mm

Nc1nc2c(ncn2[C@@H]2O[C@H](COP(=O)(O)OP(=O)(O)OP(=O)(O)O)[C@@H](O)[C@H]2O)c(=O)[nH]1 [GTP]
initial velocity, Figure 3c iv, Triplicate (Cph001 [1]; 0.02 mM GTP): 9.164e-5 and 7.331e-5 and 0.0001283 | initial velocity, Figure 3c iv, Triplicate (Cph001 [1]; 0.05 mM GTP): 9.164e-5 and 0.0001521 and 0.0001466 | initial velocity, Figure 3c iv, Triplicate (Cph001 [1]; 0.1 mM GTP): 0.0002053 and 0.0001576 and 0.0002218 | initial velocity, Figure 3c iv, Triplicate (Cph001 [1]; 0.2 mM GTP): 0.0003519 and 0.0003501 and 0.0003886 | initial velocity, Figure 3c iv, Triplicate (Cph001 [1]; 0.4 mM GTP): 0.0005242 and 0.0006232 and 0.0004326 | initial velocity, Figure 3c iv, Triplicate (Cph001 [1]; 0.6 mM GTP): 0.0006012 and 0.0005554 and 0.000493 | initial velocity, Figure 3c iv, Triplicate (Cph001 [1]; 1 mM GTP): 0.0006525 and 0.0006232 and 0.000592 | initial velocity, Figure 3c iv, Triplicate (Cph001 [1]; 2 mM GTP): 0.0006287 and 0.0006397 and 0.0005095 | kcat, phosphate donor varied (Cph001 [1]): 0.0152 ± 0.00067 s⁻¹ | Km (Cph001 [1]): 180 ± 30 µM

NC[C@H]1O[C@H](O[C@H]2[C@H](O)[C@@H](O[C@H]3O[C@H](CO)[C@@H](O)[C@H](N)[C@H]3O)[C@H](N)C[C@@H]2N)[C@H](O)[C@@H](O)[C@@H]1O [Kan, kanamycin]
phosphorylation by Cph001 in couple enzyme assay (Cph001 [1]): only capable of phosphorylating VIO

NCCC[C@H](N)CC(=O)N[C@H]1CNC(=O)[C@H]([C@H]2C[C@H](O)NC(N)=N2)NC(=O)/C(=C/NC(N)=O)NC(=O)[C@H](CO)NC(=O)[C@H](CO)NC1=O [VIO, viomycin] (β3hOrn-[Dap]SS[ΔAla(Z-3-ureido)][X1]; lactam 1-C)
Kd (Cph001 [2]): 4.18 ± 0.68 µM | zone of inhibition at 12.5 µg/disc [3]: 23.5 mm | zone of inhibition at 50 µg/disc [3]: 27 mm | zone of inhibition at 100 µg/disc [3]: 29 mm | zone of inhibition at 200 µg/disc [3]: 30 mm | phosphorylation by Cph001 in couple enzyme assay (Cph001 [1]): only capable of phosphorylating VIO | absorbance at 340 nm, Average of triplicate (Cph001 [1]; time 00:00:00): 1.495 | absorbance at 340 nm, Average of triplicate (Cph001 [1]; time 00:01:00): 1.515 | absorbance at 340 nm, Average of triplicate (Cph001 [1]; time 00:02:00): 1.474 | absorbance at 340 nm, Average of triplicate (Cph001 [1]; time 00:03:00): 1.3778 | absorbance at 340 nm, Average of triplicate (Cph001 [1]; time 00:04:00): 1.2968 | absorbance at 340 nm, Average of triplicate (Cph001 [1]; time 00:05:00): 1.217 | absorbance at 340 nm, Average of triplicate (Cph001 [1]; time 00:06:00): 1.012 | absorbance at 340 nm, Average of triplicate (Cph001 [1]; time 00:07:00): 0.8175 | absorbance at 340 nm, Average of triplicate (Cph001 [1]; time 00:08:00): 0.6031 | absorbance at 340 nm, Average of triplicate (Cph001 [1]; time 00:09:00): 0.4177 | absorbance at 340 nm, Average of triplicate (Cph001 [1]; time 00:10:00): 0.2691 | absorbance at 340 nm, Average of triplicate (Cph001 [1]; time 00:11:00): 0.254 | absorbance at 340 nm, Average of triplicate (Cph001 [1]; time 00:12:00): 0.2155 | absorbance at 340 nm, Average of triplicate (Cph001 [1]; time 00:13:00): 0.1675 | absorbance at 340 nm, Average of triplicate (Cph001 [1]; time 00:14:00): 0.1401 | absorbance at 340 nm, Average of triplicate (Cph001 [1]; time 00:15:00): 0.1225 | resistance in disk diffusion assay (E. coli/cph001): resistant | zone of inhibition at 12.5 µg/disc (E. coli/cph001): 8 mm | zone of inhibition at 50 µg/disc (E. coli/cph001): 12 mm | zone of inhibition at 100 µg/disc (E. coli/cph001): 15 mm | zone of inhibition at 200 µg/disc (E. coli/cph001): 17.5 mm | zone of inhibition at 12.5 µg/disc (E. coli/cph): 8.5 mm | zone of inhibition at 50 µg/disc (E. coli/cph): 10 mm | zone of inhibition at 100 µg/disc (E. coli/cph): 11 mm | zone of inhibition at 200 µg/disc (E. coli/cph): 12 mm

capreomycin
MIC ([4]; approximate molar equivalent): 1.5 to 4.5 µM | MIC [4]: 1 to 3 µg/mL
